Where only a bound is given, the exact number is not on record here.

Test in all cases: pIC50, kinobeads binding competition
Test [1] deals with AAK1 (UniProt Q2M2I8). The gist of the method: (§1)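 Live Jurkat cells were treated with nine compound concentrations (top 30 μM, 1:4 steps) or DMSO for 60 min at 37 °C before lysis. Alternatively, Jurkat lysate or a 1:1:1:1 HEK293/K-562/HepG2/placenta lysate mix was incubated with nine concentrations (top 30 μM, 1:5 steps) for 60 min at 4 °C. Kinobeads-bound proteins were digested and quantified by TMT10 LC-MS/MS. pIC50 came from logistic dose-response fits (R drc package) of fold changes versus DMSO, in biological duplicates.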

Test [2] addresses T1, BMPR2 (UniProt Q13873).
T1 sequence (whole entry): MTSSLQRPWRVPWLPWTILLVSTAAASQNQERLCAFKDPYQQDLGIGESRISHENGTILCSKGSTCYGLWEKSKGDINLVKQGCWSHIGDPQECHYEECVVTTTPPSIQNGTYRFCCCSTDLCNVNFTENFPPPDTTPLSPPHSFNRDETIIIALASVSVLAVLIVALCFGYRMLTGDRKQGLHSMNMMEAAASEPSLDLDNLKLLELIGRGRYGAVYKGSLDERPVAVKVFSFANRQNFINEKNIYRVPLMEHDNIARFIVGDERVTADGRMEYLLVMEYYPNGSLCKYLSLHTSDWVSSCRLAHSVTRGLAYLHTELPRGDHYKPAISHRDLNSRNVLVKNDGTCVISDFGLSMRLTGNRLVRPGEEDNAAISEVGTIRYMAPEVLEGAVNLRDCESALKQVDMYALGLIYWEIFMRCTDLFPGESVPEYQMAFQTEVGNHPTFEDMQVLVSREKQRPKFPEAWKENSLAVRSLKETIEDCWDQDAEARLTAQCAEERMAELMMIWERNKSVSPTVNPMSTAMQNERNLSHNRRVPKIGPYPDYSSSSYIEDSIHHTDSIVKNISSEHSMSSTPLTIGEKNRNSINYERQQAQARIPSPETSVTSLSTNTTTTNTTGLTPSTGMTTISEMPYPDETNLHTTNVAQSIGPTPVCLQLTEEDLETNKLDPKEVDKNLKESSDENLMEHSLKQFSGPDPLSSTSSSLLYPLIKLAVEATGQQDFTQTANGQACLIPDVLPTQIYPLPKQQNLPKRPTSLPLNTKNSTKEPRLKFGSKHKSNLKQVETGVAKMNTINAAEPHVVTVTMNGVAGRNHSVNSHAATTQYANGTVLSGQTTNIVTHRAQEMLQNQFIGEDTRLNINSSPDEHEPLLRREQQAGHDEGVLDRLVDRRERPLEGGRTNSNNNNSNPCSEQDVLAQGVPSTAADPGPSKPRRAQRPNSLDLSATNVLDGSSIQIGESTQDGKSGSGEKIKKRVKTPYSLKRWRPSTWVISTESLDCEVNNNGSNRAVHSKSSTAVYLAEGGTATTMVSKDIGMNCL
A digest of the protocol:
as §1

In test [3] the target is CAMK2G (UniProt Q13555). A digest of the protocol: as §1
In test [4] the target is CLK1 (UniProt P49759). The gist of the method: as §1
For test [5], the target named is FGFR2 (UniProt P21802). The note with it: cell material: Lysate mix. A digest of the protocol:
as §1

For test [6], the target named is HIPK1 (UniProt Q86Z02). A digest of the protocol:
as §1

Test [7] has as its target MAPK11 (UniProt Q15759). The gist of the method: as §1
Test [8] addresses MARK1 (UniProt Q9P0L2). The note with it: cell material: Lysate mix. A digest of the protocol:
as §1

Test [9] addresses STK33 (UniProt Q9BYT3). The gist of the method: as §1
Test [10] deals with T2, UniProt O00444.
T2 sequence (whole entry): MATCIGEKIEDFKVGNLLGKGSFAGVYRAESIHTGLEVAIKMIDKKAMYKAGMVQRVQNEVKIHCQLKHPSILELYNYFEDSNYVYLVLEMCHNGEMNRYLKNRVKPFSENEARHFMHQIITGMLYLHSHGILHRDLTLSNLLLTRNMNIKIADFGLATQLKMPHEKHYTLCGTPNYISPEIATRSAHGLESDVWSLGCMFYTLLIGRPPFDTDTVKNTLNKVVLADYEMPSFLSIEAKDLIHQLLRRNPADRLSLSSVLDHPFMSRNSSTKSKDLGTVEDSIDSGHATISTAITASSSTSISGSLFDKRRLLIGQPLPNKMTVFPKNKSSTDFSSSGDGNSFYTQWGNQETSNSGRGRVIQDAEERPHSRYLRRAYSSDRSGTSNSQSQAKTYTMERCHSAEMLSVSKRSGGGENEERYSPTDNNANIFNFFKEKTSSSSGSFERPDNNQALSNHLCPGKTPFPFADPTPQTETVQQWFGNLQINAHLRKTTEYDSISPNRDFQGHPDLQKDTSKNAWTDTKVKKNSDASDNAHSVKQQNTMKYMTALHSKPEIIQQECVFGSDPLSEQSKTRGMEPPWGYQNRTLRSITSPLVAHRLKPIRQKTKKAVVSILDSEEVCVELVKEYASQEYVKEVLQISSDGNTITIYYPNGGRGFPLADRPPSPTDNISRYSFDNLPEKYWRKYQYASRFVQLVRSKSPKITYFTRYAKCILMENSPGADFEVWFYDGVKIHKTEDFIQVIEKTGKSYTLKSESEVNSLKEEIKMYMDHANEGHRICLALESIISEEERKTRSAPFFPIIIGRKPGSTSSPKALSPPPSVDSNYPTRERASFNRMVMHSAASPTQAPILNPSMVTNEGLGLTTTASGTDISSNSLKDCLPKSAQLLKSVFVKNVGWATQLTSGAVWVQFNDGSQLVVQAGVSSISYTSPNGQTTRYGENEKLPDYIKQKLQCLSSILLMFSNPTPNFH
The gist of the method: as §1

Test [11] concerns the target UniProt P49840. A digest of the protocol:
as §1

Test [12] deals with UniProt Q8N4C8. A digest of the protocol:
as §1

For test [13], the target named is UniProt Q96GD4. The gist of the method: as §1
UniProt Q96GD4, sequence (Q96GD4 whole entry): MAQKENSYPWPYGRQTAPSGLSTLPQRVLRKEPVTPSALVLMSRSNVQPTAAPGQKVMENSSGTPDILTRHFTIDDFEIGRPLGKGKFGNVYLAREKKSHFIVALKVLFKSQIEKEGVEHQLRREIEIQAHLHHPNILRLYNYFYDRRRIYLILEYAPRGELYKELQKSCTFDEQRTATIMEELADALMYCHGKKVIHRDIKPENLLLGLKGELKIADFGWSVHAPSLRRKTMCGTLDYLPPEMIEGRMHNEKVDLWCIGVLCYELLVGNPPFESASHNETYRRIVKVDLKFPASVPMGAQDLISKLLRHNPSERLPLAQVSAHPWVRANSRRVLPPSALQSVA

AAK1, sequence (Q2M2I8 whole entry, looked up): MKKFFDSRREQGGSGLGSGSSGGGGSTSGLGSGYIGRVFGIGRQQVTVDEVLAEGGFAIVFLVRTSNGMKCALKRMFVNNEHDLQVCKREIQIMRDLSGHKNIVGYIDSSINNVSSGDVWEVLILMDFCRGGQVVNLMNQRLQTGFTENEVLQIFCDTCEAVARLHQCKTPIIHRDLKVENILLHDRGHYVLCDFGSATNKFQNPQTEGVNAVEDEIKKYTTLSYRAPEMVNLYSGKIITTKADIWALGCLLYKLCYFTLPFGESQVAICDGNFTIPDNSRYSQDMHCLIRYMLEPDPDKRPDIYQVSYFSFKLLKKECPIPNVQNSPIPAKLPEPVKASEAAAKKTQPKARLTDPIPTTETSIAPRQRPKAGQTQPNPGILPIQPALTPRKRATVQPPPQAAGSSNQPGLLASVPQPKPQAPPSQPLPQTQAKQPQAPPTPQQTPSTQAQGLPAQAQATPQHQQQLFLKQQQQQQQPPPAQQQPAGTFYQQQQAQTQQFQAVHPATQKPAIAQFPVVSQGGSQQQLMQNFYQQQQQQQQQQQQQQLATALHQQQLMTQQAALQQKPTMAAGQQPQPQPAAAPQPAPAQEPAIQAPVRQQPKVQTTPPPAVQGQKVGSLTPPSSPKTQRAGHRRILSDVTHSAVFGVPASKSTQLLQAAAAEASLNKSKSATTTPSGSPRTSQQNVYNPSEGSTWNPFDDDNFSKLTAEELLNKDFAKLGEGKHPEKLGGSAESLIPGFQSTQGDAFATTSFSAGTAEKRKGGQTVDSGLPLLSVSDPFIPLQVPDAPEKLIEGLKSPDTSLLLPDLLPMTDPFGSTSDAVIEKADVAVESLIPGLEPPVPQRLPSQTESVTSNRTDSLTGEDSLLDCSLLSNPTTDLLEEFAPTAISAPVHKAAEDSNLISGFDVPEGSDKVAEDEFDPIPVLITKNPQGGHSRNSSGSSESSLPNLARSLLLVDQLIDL
HIPK1, sequence (Q86Z02 whole entry, looked up): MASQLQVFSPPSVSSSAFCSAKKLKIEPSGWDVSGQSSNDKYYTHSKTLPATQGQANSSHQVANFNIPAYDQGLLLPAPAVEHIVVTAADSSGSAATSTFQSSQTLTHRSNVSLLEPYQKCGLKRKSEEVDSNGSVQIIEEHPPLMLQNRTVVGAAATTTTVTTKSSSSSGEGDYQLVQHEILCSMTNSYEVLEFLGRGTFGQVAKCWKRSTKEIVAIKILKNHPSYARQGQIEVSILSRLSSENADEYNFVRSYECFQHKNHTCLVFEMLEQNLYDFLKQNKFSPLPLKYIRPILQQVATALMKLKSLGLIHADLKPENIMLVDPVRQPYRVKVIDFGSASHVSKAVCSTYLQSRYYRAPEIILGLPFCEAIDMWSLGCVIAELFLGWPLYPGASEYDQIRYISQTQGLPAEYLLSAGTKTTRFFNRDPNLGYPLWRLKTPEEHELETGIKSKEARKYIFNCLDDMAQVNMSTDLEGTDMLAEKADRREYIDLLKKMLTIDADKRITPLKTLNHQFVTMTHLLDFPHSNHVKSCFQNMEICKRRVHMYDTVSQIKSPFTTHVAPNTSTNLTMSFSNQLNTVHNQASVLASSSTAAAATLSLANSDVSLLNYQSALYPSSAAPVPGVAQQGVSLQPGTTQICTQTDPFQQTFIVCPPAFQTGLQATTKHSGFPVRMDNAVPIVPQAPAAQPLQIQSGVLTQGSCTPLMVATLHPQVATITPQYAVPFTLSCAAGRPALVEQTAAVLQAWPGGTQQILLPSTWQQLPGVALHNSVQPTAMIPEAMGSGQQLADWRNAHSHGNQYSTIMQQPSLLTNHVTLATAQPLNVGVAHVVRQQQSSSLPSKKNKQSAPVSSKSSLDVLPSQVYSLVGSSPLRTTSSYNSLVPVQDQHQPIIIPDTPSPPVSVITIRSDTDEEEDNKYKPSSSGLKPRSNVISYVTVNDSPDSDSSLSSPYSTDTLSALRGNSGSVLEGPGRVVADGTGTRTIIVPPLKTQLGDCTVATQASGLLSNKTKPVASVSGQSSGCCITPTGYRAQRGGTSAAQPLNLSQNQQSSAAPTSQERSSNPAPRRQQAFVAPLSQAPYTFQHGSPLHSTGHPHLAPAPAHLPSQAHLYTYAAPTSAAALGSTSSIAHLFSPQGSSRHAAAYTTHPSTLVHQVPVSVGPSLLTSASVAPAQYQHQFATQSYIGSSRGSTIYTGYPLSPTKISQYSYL
STK33, sequence (Q9BYT3 whole entry, looked up): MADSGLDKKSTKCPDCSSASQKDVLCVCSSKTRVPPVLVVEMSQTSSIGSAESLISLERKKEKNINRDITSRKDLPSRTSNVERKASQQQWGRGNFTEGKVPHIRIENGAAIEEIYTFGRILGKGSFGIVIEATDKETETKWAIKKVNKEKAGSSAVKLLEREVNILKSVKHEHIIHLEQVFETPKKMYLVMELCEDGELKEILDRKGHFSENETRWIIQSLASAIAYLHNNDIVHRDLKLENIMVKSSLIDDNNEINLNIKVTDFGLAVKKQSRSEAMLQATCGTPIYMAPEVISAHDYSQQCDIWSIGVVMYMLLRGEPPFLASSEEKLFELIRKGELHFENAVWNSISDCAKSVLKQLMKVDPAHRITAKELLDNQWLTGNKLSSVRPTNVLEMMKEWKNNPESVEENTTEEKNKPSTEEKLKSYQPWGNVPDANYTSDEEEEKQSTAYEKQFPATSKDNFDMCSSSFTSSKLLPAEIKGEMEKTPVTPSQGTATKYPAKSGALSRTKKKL
UniProt Q8N4C8, sequence (Q8N4C8 whole entry, looked up): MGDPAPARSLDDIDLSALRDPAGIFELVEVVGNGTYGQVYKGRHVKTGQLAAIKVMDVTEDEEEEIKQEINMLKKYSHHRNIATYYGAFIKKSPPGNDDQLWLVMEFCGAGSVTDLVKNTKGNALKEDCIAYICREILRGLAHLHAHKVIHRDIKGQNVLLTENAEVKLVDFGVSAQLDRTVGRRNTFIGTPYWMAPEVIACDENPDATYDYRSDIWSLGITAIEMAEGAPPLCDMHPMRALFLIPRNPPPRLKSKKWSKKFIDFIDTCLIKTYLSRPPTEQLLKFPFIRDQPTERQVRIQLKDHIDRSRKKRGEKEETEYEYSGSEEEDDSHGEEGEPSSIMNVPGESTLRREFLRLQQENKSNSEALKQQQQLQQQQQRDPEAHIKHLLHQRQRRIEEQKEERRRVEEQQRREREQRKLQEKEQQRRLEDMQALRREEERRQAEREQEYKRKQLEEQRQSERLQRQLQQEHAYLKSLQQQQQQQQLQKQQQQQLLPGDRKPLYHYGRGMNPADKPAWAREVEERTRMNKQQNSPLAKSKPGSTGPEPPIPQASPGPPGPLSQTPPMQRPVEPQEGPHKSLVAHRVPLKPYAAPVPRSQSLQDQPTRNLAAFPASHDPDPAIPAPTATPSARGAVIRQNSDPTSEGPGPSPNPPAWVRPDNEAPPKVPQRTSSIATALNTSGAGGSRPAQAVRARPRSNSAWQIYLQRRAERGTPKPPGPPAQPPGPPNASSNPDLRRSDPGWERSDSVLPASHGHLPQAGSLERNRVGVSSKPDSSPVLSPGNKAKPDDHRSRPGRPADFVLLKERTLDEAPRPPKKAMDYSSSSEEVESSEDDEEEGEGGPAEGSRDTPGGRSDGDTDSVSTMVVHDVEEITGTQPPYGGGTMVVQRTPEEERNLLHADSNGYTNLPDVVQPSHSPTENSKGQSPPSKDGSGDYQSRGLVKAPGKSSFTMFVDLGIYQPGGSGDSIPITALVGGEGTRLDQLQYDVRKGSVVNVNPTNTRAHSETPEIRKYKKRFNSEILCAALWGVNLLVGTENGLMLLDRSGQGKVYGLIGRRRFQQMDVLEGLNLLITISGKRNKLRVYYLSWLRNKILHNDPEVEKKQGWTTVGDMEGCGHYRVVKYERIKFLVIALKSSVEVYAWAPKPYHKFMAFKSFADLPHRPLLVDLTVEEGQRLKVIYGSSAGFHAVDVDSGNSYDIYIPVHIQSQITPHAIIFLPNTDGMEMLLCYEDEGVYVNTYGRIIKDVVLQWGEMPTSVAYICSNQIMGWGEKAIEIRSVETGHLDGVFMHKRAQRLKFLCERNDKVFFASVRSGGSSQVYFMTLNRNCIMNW
UniProt P49840, sequence (P49840 whole entry, looked up): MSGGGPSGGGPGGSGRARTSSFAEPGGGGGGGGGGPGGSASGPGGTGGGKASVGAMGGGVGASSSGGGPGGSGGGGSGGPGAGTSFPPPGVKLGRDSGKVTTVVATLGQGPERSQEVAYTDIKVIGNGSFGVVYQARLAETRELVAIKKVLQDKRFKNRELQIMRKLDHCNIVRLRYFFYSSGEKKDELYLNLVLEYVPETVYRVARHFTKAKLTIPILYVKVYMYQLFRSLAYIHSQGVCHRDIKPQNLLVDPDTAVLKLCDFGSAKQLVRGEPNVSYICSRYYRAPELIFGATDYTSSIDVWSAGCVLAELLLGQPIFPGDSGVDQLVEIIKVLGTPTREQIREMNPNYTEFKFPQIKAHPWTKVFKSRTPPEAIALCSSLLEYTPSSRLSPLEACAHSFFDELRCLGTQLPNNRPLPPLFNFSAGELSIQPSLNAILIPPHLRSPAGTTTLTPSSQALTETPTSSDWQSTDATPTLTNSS

As for `Cc1cc(Nc2cc(C(=O)NCCNC(=O)OC3CC/C=C/CCC3)nc(N3CCN(Cc4ccc(S(=O)(=O)F)cc4)CC3)n2)n[nH]1` (centres undefined), the pIC50 in [1] (cell material: Lysate mix), in [2] (cell material: Lysate mix), in test [3] (cell material: Lysate mix), in test [4] (cell material: Lysate mix), in test [5] and in test [6] (cell material: Lysate mix) was less than 4.52 in each case. The pIC50 in [7] (cell material: Lysate mix), in [8], in test [9] (cell material: Lysate mix), in test [10] (cell material: Lysate mix), in test [11] (cell material: Lysate mix) and in test [12] (cell material: Lysate mix) was less than 4.52 throughout. Moreover, the pIC50 (commonly the IC50 on a negative log10 scale, so that one unit is a factor of ten) in test [13] (cell material: Lysate mix) was found to be 4.92.

On to `C#CCNC(=O)c1cc(Nc2cc(C3CC3)[nH]n2)nc(N2CCN(Cc3ccc(S(=O)(=O)F)cc3)CC2)n1`, for which the pIC50 in test [1] (cell material: Jurkat cells) is 5.43; in test [1] (cell material: Jurkat lysate) it was less than 4.52; in test [1] (cell material: Lysate mix), less than 4.52; in [2] (cell material: Jurkat cells) it was 5.72; in [2] (cell material: Jurkat lysate), less than 4.52; in test [2] (cell material: Lysate mix), less than 4.52. Further, the pIC50 was 5.13 in [3] (cell material: Jurkat cells); less than 4.52 in [3] (cell material: Jurkat lysate); less than 4.52 in [3] (cell material: Lysate mix); 6.11 in test [4] (cell material: Jurkat cells); 5.38 in test [4] (cell material: Jurkat lysate); 5.66 in test [4] (cell material: Lysate mix). Further, the pIC50 in test [5] is 4.94; in [6] (cell material: Jurkat cells) it was 6.08; in [6] (cell material: Jurkat lysate) it was 5.37; in [6] (cell material: Lysate mix) it was 6; in test [7] (cell material: Jurkat lysate) it was less than 4.52; in [7] (cell material: Lysate mix), less than 4.52. The pIC50 in test [8] was less than 4.52; in test [9] (cell material: Jurkat cells), 6.2; in test [9] (cell material: Jurkat lysate) it was 5.12; in test [9] (cell material: Lysate mix) it was 5.82; in [10] (cell material: Jurkat cells) it was 5.96; in test [10] (cell material: Jurkat lysate), 5.44. Besides, the pIC50 in test [10] (cell material: Lysate mix) is 6.02; in [11] (cell material: Jurkat cells), 5.04; in [11] (cell material: Jurkat lysate), less than 4.52; in test [11] (cell material: Lysate mix), less than 4.52; in test [12] (cell material: Jurkat cells), 5.72; in test [12] (cell material: Jurkat lysate) it was less than 4.52. Also, the pIC50 in test [12] (cell material: Lysate mix) was less than 4.52; in [13] (cell material: Jurkat cells), 6.67; in [13] (cell material: Jurkat lysate), 5.72; in [13] (cell material: Lysate mix), 6.22.

With `CCNC(=O)c1cc(Nc2cc(C3CC3)[nH]n2)nc(N2CCN(Cc3ccc(S(=O)(=O)F)cc3)CC2)n1`, the pIC50 in [1] (cell material: Lysate mix) is less than 4.52; in test [2] (cell material: Lysate mix), less than 4.52; in [3] (cell material: Lysate mix) it was less than 4.52; in [4] (cell material: Lysate mix) it was 5.44; in test [5], 5.24; in [6] (cell material: Lysate mix), 5.78. For the same compound, the pIC50 is less than 4.52 in test [7] (cell material: Lysate mix); less than 4.52 in test [8]; 5.67 in test [9] (cell material: Lysate mix); 5.81 in [10] (cell material: Lysate mix); less than 4.52 in [11] (cell material: Lysate mix); less than 4.52 in test [12] (cell material: Lysate mix). For the same compound, the pIC50 in [13] (cell material: Lysate mix) turned out to be 5.94.

With `C#CCNC(=O)c1cc(Nc2cc(C)[nH]n2)nc(N2CCN(Cc3ccc(S(=O)(=O)F)cc3)CC2)n1`, the pIC50 is less than 4.52 in test [1] (cell material: Lysate mix); less than 4.52 in test [2] (cell material: Lysate mix); less than 4.52 in test [3] (cell material: Lysate mix); less than 4.52 in test [4] (cell material: Lysate mix); less than 4.52 in [5]; 5.06 in test [6] (cell material: Lysate mix). The pIC50 is less than 4.52 in test [7] (cell material: Lysate mix); less than 4.52 in [8]; less than 4.52 in test [9] (cell material: Lysate mix); 5.39 in test [10] (cell material: Lysate mix); less than 4.52 in test [11] (cell material: Lysate mix); less than 4.52 in test [12] (cell material: Lysate mix). The pIC50 in test [13] (cell material: Lysate mix) came to 5.94.

For `O=C(NCCNC(=O)c1cc(Nc2cc(C3CC3)[nH]n2)nc(N2CCN(Cc3ccc(S(=O)(=O)F)cc3)CC2)n1)OC1CC/C=C/CCC1` (centres undefined), the pIC50 in [1] (cell material: Jurkat cells), in [1] (cell material: Jurkat lysate), in [1] (cell material: Lysate mix), in test [2] (cell material: Jurkat cells), in test [2] (cell material: Jurkat lysate) and in test [2] (cell material: Lysate mix) was less than 4.52 throughout. In addition, the pIC50 in [3] (cell material: Jurkat cells), in test [3] (cell material: Jurkat lysate), in test [3] (cell material: Lysate mix), in [4] (cell material: Jurkat lysate), in [4] (cell material: Lysate mix) and in test [5] was less than 4.52 in each case. For the same compound, the pIC50 is 5.3 in [6] (cell material: Jurkat cells); less than 4.52 in test [6] (cell material: Jurkat lysate); less than 4.52 in test [6] (cell material: Lysate mix); less than 4.52 in test [7] (cell material: Jurkat cells); less than 4.52 in test [7] (cell material: Jurkat lysate); less than 4.52 in [7] (cell material: Lysate mix). Further, the pIC50 in test [8] is less than 4.52; in [9] (cell material: Jurkat cells), 5.76; in test [9] (cell material: Jurkat lysate), less than 4.52; in test [9] (cell material: Lysate mix), less than 4.52; in [10] (cell material: Jurkat cells), 5.5; in test [10] (cell material: Jurkat lysate), less than 4.52. Further, the pIC50 is less than 4.52 in [10] (cell material: Lysate mix); less than 4.52 in [11] (cell material: Jurkat cells); less than 4.52 in test [11] (cell material: Jurkat lysate); less than 4.52 in [11] (cell material: Lysate mix); 5.12 in [12] (cell material: Jurkat cells); less than 4.52 in test [12] (cell material: Jurkat lysate). Besides, the pIC50 is less than 4.52 in test [12] (cell material: Lysate mix), 6.39 in [13] (cell material: Jurkat cells) and 4.98 in test [13] (cell material: Lysate mix).

In the case of `CCNC(=O)c1cc(Nc2cc(C)[nH]n2)nc(N2CCN(Cc3ccc(S(=O)(=O)F)cc3)CC2)n1`, the pIC50 is less than 4.52 in test [1] (cell material: Lysate mix); less than 4.52 in test [2] (cell material: Lysate mix); less than 4.52 in test [3] (cell material: Lysate mix); less than 4.52 in test [4] (cell material: Lysate mix); less than 4.52 in test [5]; 4.78 in [6] (cell material: Lysate mix). Also, the pIC50 in test [7] (cell material: Lysate mix) is less than 4.52; in test [8] it was less than 4.52; in test [9] (cell material: Lysate mix) it was less than 4.52; in test [10] (cell material: Lysate mix), 5.97; in test [11] (cell material: Lysate mix), less than 4.52; in test [12] (cell material: Lysate mix), less than 4.52. This compound also displayed a pIC50 in [13] (cell material: Lysate mix) of 6.13.

For the origin of these results see the supplement of paper PMC12076712.
